Assay results as given in patent US4256836A, “Addition compound of dipeptide derivative and amino acid derivative” (Toyo Soda Manufacturing Co. Ltd., priority 1977, dated 1981).
Where a SMILES comes first, the peptide text is derived from it. The star is where a group is joined. Cbz = O=C(OCc1ccccc1)*

Experiments:
[1] = solubility in water or acidic aqueous solution; assay type: physicochemical; conditions: at 25° C.
[2] = relative to sugar; cited from earlier work

solubility in water [1]	SMILES	solubility in diluted hydrochloric acid ([1]; diluted hydrochloric acid (10^-2 M))	sweetness [2]
0.028 g/100 g water	COC(=O)[C@H](Cc1ccccc1)NC(=O)[C@H](CC(=O)O)NC(=O)OCc1ccccc1 (Cbz-Asp-Phe-OMe)	0.017 g/100 g diluted hydrochloric acid (10^-2 M)	
	COC(=O)[C@H](Cc1ccccc1)NC(=O)[C@@H](N)CC(=O)O [α-L-Aspartyl-L-phenylalanine methyl ester] (H-Asp-Phe-OMe)		about 200 times of that of sugar
